Columns and labels:
[1] = target: T1, Full length human recombinant HDAC11 (Homo sapiens, UniProt Q96DB2); assay: In vitro histone deacetylase assay, enzymatic HDAC11 (electrophoretic mobility shift assay); format: biochemical; conditions: 10 nM HDAC11; 2 μM peptide substrate FAM-RHKK(tri-fluor-Ac)—NH2; 25° C.; 12 concentrations; read-out: HDAC11 Activity Range (IC50)
T1 construct: Full length human recombinant HDAC6 and HDAC11 proteins were expressed in baculoviral system
T1 sequence (Q96DB2 1-347): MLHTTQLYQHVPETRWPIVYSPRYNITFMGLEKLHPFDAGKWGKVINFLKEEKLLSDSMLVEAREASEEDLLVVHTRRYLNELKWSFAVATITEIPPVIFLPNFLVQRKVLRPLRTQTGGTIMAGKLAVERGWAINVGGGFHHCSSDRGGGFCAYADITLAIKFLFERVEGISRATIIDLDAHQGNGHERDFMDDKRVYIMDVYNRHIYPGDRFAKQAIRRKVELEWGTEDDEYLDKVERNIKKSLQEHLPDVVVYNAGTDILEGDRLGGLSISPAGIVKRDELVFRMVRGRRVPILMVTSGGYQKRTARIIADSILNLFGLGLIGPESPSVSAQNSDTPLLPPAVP
Outline: (§1)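 Baculovirus-expressed full-length enzymes (HDAC6 1 nM, FAM-RHKK(Ac)-NH2; HDAC11 10 nM, FAM-RHKK(tri-fluor-Ac)-NH2), 2 μM substrate, HEPES pH 7.5, 25°C, 12-point 3× dilutions. Product/substrate separated by microfluidic mobility shift after SDS quench; IC50 from 4-parameter fit, reported as +/++/+++ bins.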

[2] = target: T2, Full length human recombinant HDAC6 (Homo sapiens, UniProt Q9UBN7); assay: In vitro histone deacetylase assay, enzymatic HDAC6 (electrophoretic mobility shift assay); format: biochemical; conditions: 1 nM HDAC6; 2 μM peptide substrate FAM-RHKK(Ac)—NH2; 25° C.; 12 concentrations; read-out: HDAC6 Activity Range (IC50)
T2 construct: Full length human recombinant HDAC6 and HDAC11 proteins were expressed in baculoviral system
T2 sequence (Q9UBN7 1-1215): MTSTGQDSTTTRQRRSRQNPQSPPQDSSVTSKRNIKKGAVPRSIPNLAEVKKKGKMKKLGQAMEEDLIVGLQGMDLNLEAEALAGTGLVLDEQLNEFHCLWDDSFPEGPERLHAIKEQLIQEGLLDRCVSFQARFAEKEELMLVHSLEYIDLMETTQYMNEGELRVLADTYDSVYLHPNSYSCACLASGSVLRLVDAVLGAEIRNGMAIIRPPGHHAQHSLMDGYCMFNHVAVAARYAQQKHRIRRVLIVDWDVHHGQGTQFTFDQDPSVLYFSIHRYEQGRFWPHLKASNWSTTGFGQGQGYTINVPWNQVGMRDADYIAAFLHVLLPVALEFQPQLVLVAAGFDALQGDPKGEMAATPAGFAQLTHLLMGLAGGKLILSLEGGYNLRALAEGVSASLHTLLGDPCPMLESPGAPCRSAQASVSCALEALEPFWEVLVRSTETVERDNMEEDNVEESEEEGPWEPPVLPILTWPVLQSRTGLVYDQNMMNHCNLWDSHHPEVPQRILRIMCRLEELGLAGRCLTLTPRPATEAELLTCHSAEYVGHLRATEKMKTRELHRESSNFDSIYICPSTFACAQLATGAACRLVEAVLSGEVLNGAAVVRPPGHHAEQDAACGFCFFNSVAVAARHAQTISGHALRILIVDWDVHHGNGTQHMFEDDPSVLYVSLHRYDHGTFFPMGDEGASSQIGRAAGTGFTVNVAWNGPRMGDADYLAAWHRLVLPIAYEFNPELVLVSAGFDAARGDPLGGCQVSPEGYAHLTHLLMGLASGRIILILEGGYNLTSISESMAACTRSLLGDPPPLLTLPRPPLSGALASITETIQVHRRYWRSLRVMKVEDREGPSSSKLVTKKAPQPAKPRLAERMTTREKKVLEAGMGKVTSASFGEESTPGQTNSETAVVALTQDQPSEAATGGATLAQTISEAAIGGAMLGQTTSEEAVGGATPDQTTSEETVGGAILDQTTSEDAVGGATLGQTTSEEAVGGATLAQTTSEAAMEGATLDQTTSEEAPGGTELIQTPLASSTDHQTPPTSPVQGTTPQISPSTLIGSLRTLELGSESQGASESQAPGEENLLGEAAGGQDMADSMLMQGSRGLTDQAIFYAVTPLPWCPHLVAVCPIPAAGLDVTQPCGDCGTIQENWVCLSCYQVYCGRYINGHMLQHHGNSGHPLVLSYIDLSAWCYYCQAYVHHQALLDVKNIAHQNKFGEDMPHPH
Outline: as §1

SMILES | IC50 [1] | IC50 [2]
Cc1ccc(CN2CC[C@]3(CCc4ccc(C(=O)NO)cc4C3)C2=O)cc1 [Compound I-123, (R)—N-hydroxy-1′-(4-methylbenzyl)-2′-oxo-3,4-dihydro-1H-spiro[naphthalene-2,3′-pyrrolidine]-7-carboxamide] | > 500 nM | ≤ 100 nM
O=C(NO)c1ccc2c(c1)C[C@@]1(CC2)CCN(Cc2ccc(C(F)(F)F)c(F)c2)C1=O [Compound I-124, (S)-1′-(3-fluoro-4-(trifluoromethyl)benzyl)-N-hydroxy-2′-oxo-3,4-dihydro-1H-spiro[naphthalene-2,3′-pyrrolidine]-7-carboxamide] | ≤ 100 nM | ≤ 100 nM
O=C(NO)c1ccc2c(c1)C[C@]1(CC2)CCN(Cc2ccc(C(F)(F)F)c(F)c2)C1=O [Compound I-125, (R)-1′-(3-fluoro-4-(trifluoromethyl)benzyl)-N-hydroxy-2′-oxo-3,4-dihydro-1H-spiro[naphthalene-2,3′-pyrrolidine]-7-carboxamide] | 100 to 500 nM | ≤ 100 nM
O=C(NO)c1ccc2c(c1)C[C@@]1(CC2)CCN(Cc2ccc(C(F)(F)F)cc2)C1=O [Compound I-126, (S)—N-hydroxy-2′-oxo-1′-(4-(trifluoromethyl)benzyl)-3,4-dihydro-1H-spiro[naphthalene-2,3′-pyrrolidine]-7-carboxamide] | ≤ 100 nM | ≤ 100 nM
O=C(NO)c1ccc2c(c1)C[C@]1(CC2)CCN(Cc2ccc(C(F)(F)F)cc2)C1=O [Compound I-127, (R)—N-hydroxy-2′-oxo-1′-(4-(trifluoromethyl)benzyl)-3,4-dihydro-1H-spiro[naphthalene-2,3′-pyrrolidine]-7-carboxamide] | 100 to 500 nM | ≤ 100 nM
O=C(NO)c1ccc2c(c1)C[C@]1(CC2)CC(=O)N(Cc2ccc(F)cc2)C1 [Compound I-128, (R)-1′-(4-fluorobenzyl)-N-hydroxy-5′-oxo-3,4-dihydro-1H-spiro[naphthalene-2,3′-pyrrolidine]-7-carboxamide] | > 500 nM | ≤ 100 nM
O=C(NO)c1ccc2c(c1)C[C@@]1(CC2)CC(=O)N(Cc2ccc(F)cc2)C1 [Compound I-129, (S)-1′-(4-fluorobenzyl)-N-hydroxy-5′-oxo-3,4-dihydro-1H-spiro[naphthalene-2,3′-pyrrolidine]-7-carboxamide] | > 500 nM | ≤ 100 nM
CN1C[C@@]2(CCc3ccc(C(=O)NO)cc3C2)CC1=O [Compound I-130, (R)—N-hydroxy-1′-methyl-5′-oxo-3,4-dihydro-1H-spiro[naphthalene-2,3′-pyrrolidine]-7-carboxamide] | > 500 nM | ≤ 100 nM
CN1C[C@]2(CCc3ccc(C(=O)NO)cc3C2)CC1=O [Compound I-131, (S)—N-hydroxy-1′-methyl-5′-oxo-3,4-dihydro-1H-spiro[naphthalene-2,3′-pyrrolidine]-7-carboxamide] | > 500 nM | ≤ 100 nM
O=C(NO)c1ccc2c(c1)C[C@@]1(CC2)CC(=O)N(c2ccccc2)C1 [Compound I-132, (S)—N-hydroxy-5′-oxo-1′-phenyl-3,4-dihydro-1H-spiro[naphthalene-2,3′-pyrrolidine]-7-carboxamide] | > 500 nM | ≤ 100 nM
O=C(NO)c1ccc2c(c1)C[C@]1(CC2)CC(=O)N(CC2CCC2)C1 [Compound I-133, (R)-1′-(cyclobutylmethyl)-N-hydroxy-5′-oxo-3,4-dihydro-1H-spiro[naphthalene-2,3′-pyrrolidine]-7-carboxamide] | > 500 nM | ≤ 100 nM
O=C(NO)c1ccc2c(c1)C[C@@]1(CC2)CC(=O)N(CC2CCC2)C1 [Compound I-134, (S)-1′-(cyclobutylmethyl)-N-hydroxy-5′-oxo-3,4-dihydro-1H-spiro[naphthalene-2,3′-pyrrolidine]-7-carboxamide] | > 500 nM | ≤ 100 nM
COCCCN1C[C@@]2(CCc3ccc(C(=O)NO)cc3C2)CC1=O [Compound I-135, (R)—N-hydroxy-1′-(3-methoxypropyl)-5′-oxo-3,4-dihydro-1H-spiro[naphthalene-2,3′-pyrrolidine]-7-carboxamide] | > 500 nM | ≤ 100 nM
COCCCN1C[C@]2(CCc3ccc(C(=O)NO)cc3C2)CC1=O [Compound I-136, (S)—N-hydroxy-1′-(3-methoxypropyl)-5′-oxo-3,4-dihydro-1H-spiro[naphthalene-2,3′-pyrrolidine]-7-carboxamide] | > 500 nM | ≤ 100 nM
CC(C)CN1C[C@@]2(CCc3ccc(C(=O)NO)cc3C2)CC1=O [Compound I-137, (R)—N-hydroxy-1′-isobutyl-5′-oxo-3,4-dihydro-1H-spiro[naphthalene-2,3′-pyrrolidine]-7-carboxamide] | > 500 nM | ≤ 100 nM
CC(C)CN1C[C@]2(CCc3ccc(C(=O)NO)cc3C2)CC1=O [Compound I-138, (S)—N-hydroxy-1′-isobutyl-5′-oxo-3,4-dihydro-1H-spiro[naphthalene-2,3′-pyrrolidine]-7-carboxamide] | > 500 nM | ≤ 100 nM
CC(C)N1C[C@@]2(CCc3ccc(C(=O)NO)cc3C2)CC1=O [Compound I-139, (R)—N-hydroxy-1′-isopropyl-5′-oxo-3,4-dihydro-1H-spiro[naphthalene-2,3′-pyrrolidine]-7-carboxamide] | > 500 nM | ≤ 100 nM
CC(C)N1C[C@]2(CCc3ccc(C(=O)NO)cc3C2)CC1=O [Compound I-140, (S)—N-hydroxy-1′-isopropyl-5′-oxo-3,4-dihydro-1H-spiro[naphthalene-2,3′-pyrrolidine]-7-carboxamide] | > 500 nM | ≤ 100 nM
O=C(NO)c1ccc2c(c1)C[C@@]1(CC2)CC(=O)N(C2CC2)C1 [Compound I-141, (S)-1′-cyclopropyl-N-hydroxy-5′-oxo-3,4-dihydro-1H-spiro[naphthalene-2,3′-pyrrolidine]-7-carboxamide] | > 500 nM | ≤ 100 nM
CCN1C[C@@]2(CCc3ccc(C(=O)NO)cc3C2)CC1=O [Compound I-142, (R)-1′-ethyl-N-hydroxy-5′-oxo-3,4-dihydro-1H-spiro[naphthalene-2,3′-pyrrolidine]-7-carboxamide] | > 500 nM | ≤ 100 nM
CCN1C[C@]2(CCc3ccc(C(=O)NO)cc3C2)CC1=O [Compound I-143, (S)-1′-ethyl-N-hydroxy-5′-oxo-3,4-dihydro-1H-spiro[naphthalene-2,3′-pyrrolidine]-7-carboxamide] | > 500 nM | ≤ 100 nM
O=C(NO)c1ccc2c(c1)C[C@@]1(CC2)CC(=O)N(CC(F)(F)F)C1 [Compound I-144, (S)—N-hydroxy-5′-oxo-1′-(2,2,2-trifluoroethyl)-3,4-dihydro-1H-spiro[naphthalene-2,3′-pyrrolidine]-7-carboxamide] | > 500 nM | ≤ 100 nM
O=C(NO)c1ccc2c(c1)C[C@]1(CC2)CC(=O)N(c2ccccc2)C1 [Compound I-145, (R)—N-hydroxy-5′-oxo-1′-phenyl-3,4-dihydro-1H-spiro[naphthalene-2,3′-pyrrolidine]-7-carboxamide] | > 500 nM | ≤ 100 nM

Reference: patent US9637453B2, “3-spirocyclic-6-hydroxamic acid tetralins as HDAC inhibitors” (Forma Therapeutics, Inc., priority 2015, dated 2017)
